Assay results published in US20130336889A1, “NANOPARTICLE AND METHOD FOR DETECTING OR TREATING A TUMOR USING THE SAME” (NATIONAL TAIWAN UNIVERSITY, priority 2012, published 2013).

Columns and labels:
[1] = Absorbance spectra (UV-vis); format: physicochemical
HCT-116 cells = assay: Cytotoxicity by MTT assay without or with NIR irradiation; format: cell-based, human; details: 2.5 μg/mL
Description: Cell viability was determined with the MTT assay and a scanning multiwell ELISA reader (Microplate Autoreader EL311, Bio-Tek Instruments Inc., Winooski, Vt., USA). The fraction of live cells was calculated by dividing the mean optical density obtained from treated cells by the mean optical density from untreated control cells.

maximum wavelength (λmax) of absorption ([1]; IR-780 dye diluted in THF, IR-780 micelles in PBS): about 795 nm
λmax of absorption peak ([1]; aggregated in aqueous buffer, broad and blue-shifted): 775 nm
Compound: CCCN1C(=CC=C2CCCC(C=CC3=[N+](CCC)c4ccccc4C3(C)C)=C2Cl)C(C)(C)c2ccccc21.[I-] [free IR-780 iodide, IR-780 iodide]
excess cells killed (HCT-116 cells; 808 nm 0.6 W/cm^2 NIR irradiation 10 min): 0.3%
excess cells killed (HCT-116 cells; 808 nm 0.6 W/cm^2 NIR irradiation 20 min): 26.8%
